Test results as given in patent publication EP4810038A1, “METHOD FOR TREATING ALK-POSITIVE OR ROS1-POSITIVE NON-SMALL CELL LUNG CANCER” (Shenzhen TargetRx Co., Ltd., priority 2023, dated 2025).

Key:
[1] = test system: Ba/F3 (SLC34A2-ROS1 G2032R) cell line; test: Anti-tumor effect in subcutaneous transplanted Ba/F3 (SLC34A2-ROS1 G2032R) model; format: in vivo, NOD-SCID mice; conditions: 100 mg/kg p.o. once daily; 21st day after administration
Excerpt: Housing environment: SPF grade.
Environmental conditions of the housing room of the laboratory animals: All the laboratory animals were housed in individually ventilated cages with constant temperature and constant humidity. […] The animals were continuously provided with cobalt-60 irradiated complete pelleted mouse feed with unlimited free access. The animals drank tap water (used after being autoclaved), which was provided continuously from water bottles, allowing for free access. The cages for raising the mice were polysulfone mice cages, which were autoclaved before use, and measured 325 mm × 210 mm × 180 mm. The bedding was autoclaved corn cobs. Each cage contained 5 animals. The cage cards were marked with the IACUC approval number, experiment number, start time of the experiment, project leader, experimenters, source of the animals, group, and animal number. The laboratory animals were marked with ear tags or ear labels.
The Ba/F3 (SLC34A2-ROS1 G2032R) cells in the exponential growth phase were collected, resuspended in PBS to a suitable concentration, and then subcutaneously inoculated into nude mice for tumor formation.
Assay method: Female NOD/SCID mice were subcutaneously inoculated with 2×10^6 Ba/F3 (SLC34A2-ROS1 G2032R) cells on the right side to establish a subcutaneous tumor transplantation model. […] The mice were administered orally via gavage once daily. The efficacy was evaluated based on the relative tumor growth inhibition rate (TGI), and the safety was evaluated based on the changes in the body weight and mortality of the animals.
All the procedures, including drug administration, tumor measurement, weight measurement, etc., were performed in a biosafety cabinet or on a clean bench.
The relative tumor growth rate (T/C%) was the percentage value of the relative tumor volume between a treatment group and the control group at a certain time point, or the percentage value of the tumor weight between a treatment group and the control group. The calculation formula was: T/C% = TRTV / CRTV × 100% (TRTV: the average RTV of the treatment group; CRTV: the average RTV of the solvent control group; RTV = Vt / V0, wherein V0 is the tumor volume of the animal at the time of grouping, and Vt is the tumor volume of the animal after treatment); or T/C% = TTW / CTW × 100% (TTW: the average tumor weight at the end of the assay in the treatment group; CTW: the average tumor weight at the end of the assay in the solvent control group).
Statistical analysis: To compare the tumor volume on a given day across the different treatment groups, we first used the Bartlett's test to verify the assumption of homogeneity of variance among all the groups. When the p-value of the Bartlett's test was not less than 0.05, one-way ANOVA was used to test whether the means of all the groups were equal. If the p-value of the one-way ANOVA was less than 0.05, we would use the Tukey's HSD test for the pairwise comparisons between all the groups, or use the Dunnett's test for a pairwise comparison between each treatment group and the control group. When the p-value of the Bartlett's test was less than 0.05, the Kruskal-Wallis test was used to test whether the medians of all the groups were equal. […]

[2] = 100 mg of lorlatinib, GM (%CV), cited from earlier work

Row | SMILES | average tumor volume [1] | AR ([2]; Multiple administrations) | AUC0-τ ([2]; Multiple administrations) | Cmax, SS ([2]; Multiple administrations) | AUC(0-inf) ([2]; Single administration) | Cmax ([2]; Single administration) | T1/2 ([2]; Single administration)
1 | C[C@@H](Oc1cc(-c2cnn(C3CCNCC3)c2)cnc1N)c1c(Cl)ccc(F)c1Cl [crizotinib, reference compound] | 1651.66 mm^3 |  |  |  |  |  | 
2 | C[C@H]1Oc2cc(cnc2N)-c2c(nn(C)c2C#N)CN(C)C(=O)c2ccc(F)cc21 [lorlatinib] |  | 0.718(55)[11] | 5946(46)[11] h*ng/ mL | 644.8(32)[11] ng/mL | 9590(11)[7] h*ng/ mL | 907.2(24) [7] ng/mL | 20.0(22)[7] hour
